TGI data for 15 molecules are collected here from PubChem BioAssay (NCI).

Test systems include HCC-2998 colon; HCT-116 colon; SW-620 colon; SF-268 CNS; HT29 colon; UACC-257 melanoma; HOP-92 NSCLC; BT-549 breast; TK-10 renal; MDA-MB-435.
Test in all cases: inhibition of tumour cell growth, NCI panel, 48 h

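Where inhibition never reached the appropriate level, the endpoint shown equals the highest concentration tested. Otherwise, values were interpolated linearly from a five-concentration, 48-hour dose response in 96-well plates. TGI is the concentration that stops growth completely.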 *1 amine or outer side, *2 acyl side, *3 side chain or, on linkers, in order; H or OH if unused. Where a SMILES comes first, the peptide text is derived from it. Bridges are numbered along the chain shown (N, C = ends). Roman numbers before positions name the chains, in order. [ ]: non-standard residue; d: D form. Actinocin(9to1) = Cc1c2oc3c(C)ccc(C(=O)[*:1])c3nc-2c(C(=O)[*:2])c(N)c1=O; Hyp = O=C(O)[CH]1C[CH](O)CN1; NMeV = CN[CH](C(=O)O)C(C)C; Sar = CNCC(=O)O

`COC(=O)[C@]1(c2ccc(N(C)C)cc2OC)C[C@@H]2CCCN(CCc3c1[nH]c1ccccc31)C2`: the TGI was 29.8 µM in the assay on HCC-2998 colon; 55.5 µM in the assay with HCT-116 colon; over 100 µM in the assay on SW-620 colon; 71.2 µM with SF-268 CNS; 32.8 µM in the assay with HT29 colon; 39.6 µM in the assay with UACC-257 melanoma. Moreover, the TGI in the assay with HOP-92 NSCLC was 33.4 µM.
As to `COc1cc(C2C3=C(CCCC3=O)N(c3ccc(C)cc3)C3=C2C(=O)CCC3)c([N+](=O)[O-])cc1OC`, the TGI in the assay with HCC-2998 colon, in the assay on SW-620 colon, with SF-268 CNS, with BT-549 breast, in the assay with HT29 colon and in the assay with TK-10 renal was over 100 µM in each case. In the assay on HOP-92 NSCLC, the TGI is over 100 µM.
As for `O[C@@H]1CCC[C@@H]2NC[C@@H](c3ccc4c(c3)OCO4)[C@H]12`, the TGI in the assay on HCC-2998 colon, in the assay with SW-620 colon, in the assay on SF-268 CNS, in the assay on MDA-MB-435, with HT29 colon and with TK-10 renal was over 100 µM throughout. The TGI with UACC-257 melanoma and in the assay with HOP-92 NSCLC was over 100 µM throughout.
Consider `CCCOP(=O)(OCCC)OC(C(F)(F)F)C(F)(F)F`, for which the TGI in the assay on HCC-2998 colon, with HCT-116 colon, in the assay with BT-549 breast, with MDA-MB-435, in the assay on HT29 colon and in the assay with TK-10 renal was over 100 µM throughout. Besides, the TGI in the assay with UACC-257 melanoma was over 100 µM.
As for `COC(=O)C1CCC(=O)N1C(c1cc(OC)c(OC)c(OC)c1)c1cccc2ccccc12` (stereo not drawn), the TGI with HCT-116 colon, in the assay on SW-620 colon, in the assay on SF-268 CNS, in the assay on MDA-MB-435, in the assay with HT29 colon and in the assay with TK-10 renal was over 100 µM each time. In addition, the TGI in the assay with UACC-257 melanoma and with HOP-92 NSCLC was over 100 µM in each case.
With `O=[N+]([O-])/C=C(\CS(=O)(=O)c1ccccc1)c1ccc2c(c1)OCO2`, the TGI is over 100 µM with HCC-2998 colon; over 100 µM in the assay on HCT-116 colon; over 100 µM in the assay on SW-620 colon; over 100 µM in the assay with SF-268 CNS; 76.6 µM with MDA-MB-435; over 100 µM with HT29 colon. The molecule further showed a TGI with HOP-92 NSCLC of over 100 µM.
For `Cc1cc(S(=O)(=O)Nc2nncn2-c2ccc(Cl)cc2)c(S)cc1Cl`, the TGI in the assay on HCC-2998 colon, in the assay with HCT-116 colon, with SW-620 colon, with SF-268 CNS, in the assay on BT-549 breast and in the assay with MDA-MB-435 was over 10 µM in each case. Moreover, the TGI in the assay with HT29 colon, with TK-10 renal and with UACC-257 melanoma was over 10 µM throughout.
As to `COc1cc2c(cc1Oc1c(Oc3c(O)c(OC)cc4c3C(CC(C)C)N(C)CC4)c(OC)cc3c1C(CC(C)C)N(C)CC3)C(CC(C)C)N(C)CC2` (stereo not drawn), the TGI in the assay on HCC-2998 colon was found to be 5.17 µM; with HCT-116 colon, 3.85 µM; in the assay on SW-620 colon, 8.28 µM; in the assay on SF-268 CNS it was 8.85 µM; with HT29 colon it was 5.61 µM; in the assay with UACC-257 melanoma it was 11.5 µM. The same molecule showed a TGI with HOP-92 NSCLC of 7.87 µM.
For the molecule `COC(=O)C1=C(C(=O)OC)C(N(C)C)C(C(=O)OC)=C(C(=O)OC)S1`, the TGI with HCC-2998 colon, in the assay with HCT-116 colon, in the assay with SW-620 colon, in the assay with SF-268 CNS, in the assay with BT-549 breast and in the assay with MDA-MB-435 was over 100 µM throughout. Besides, the TGI in the assay with TK-10 renal and in the assay on UACC-257 melanoma was over 100 µM in each case.
Take `O=C(Nc1ccccc1Cl)c1ccc([N+](=O)[O-])cc1`: the TGI in the assay on HCC-2998 colon, in the assay with SW-620 colon, in the assay on SF-268 CNS, in the assay with HT29 colon, in the assay with TK-10 renal and in the assay with UACC-257 melanoma was over 100 µM throughout.
Turning to `Cc1c2oc3c(C)ccc(C(=O)NC4C(=O)NC(C(C)C)C(=O)N5CC(O)CC5C(=O)N(C)CC(=O)N(C)C(C(C)C)C(=O)OC4C)c3nc-2c(C(=O)NC2C(=O)NC(C(C)C)C(=O)N3CC(O)CC3C(=O)N(C)CC(=O)N(C)C(C(C)C)C(=O)OC2C)c(N)c1=O` (stereo not drawn) (I: TV[Hyp][Sar][NMeV] / II: TV[Hyp][Sar][NMeV]; ester I:1-I:C, II:1-II:C; linker I:N-II:N via Actinocin(9to1); configuration not given here), the TGI in the assay with HCC-2998 colon, in the assay on HCT-116 colon, in the assay on SW-620 colon, in the assay on SF-268 CNS, in the assay on MDA-MB-435 and with HT29 colon was over 1 µM each time. Moreover, the TGI in the assay on TK-10 renal, in the assay with UACC-257 melanoma and in the assay with HOP-92 NSCLC was over 1 µM in each case.
In the case of `CCSc1nc(=S)n(-c2ccccc2)c(C)c1C(C)=O`, the TGI in the assay on HCC-2998 colon, in the assay on HCT-116 colon, in the assay with SW-620 colon, in the assay with SF-268 CNS, in the assay with MDA-MB-435 and with HT29 colon was over 100 µM in each case. For the same molecule, the TGI with TK-10 renal, with UACC-257 melanoma and in the assay on HOP-92 NSCLC was over 100 µM in each case.
On to `COc1c(Br)cc2ccccc2c1-c1c(OC)c(Br)cc2ccccc12`, for which the TGI in the assay on HCC-2998 colon, in the assay on SW-620 colon, with SF-268 CNS, in the assay on MDA-MB-435, in the assay on HT29 colon and in the assay on TK-10 renal was over 100 µM in each case. Further, the TGI in the assay on UACC-257 melanoma and with HOP-92 NSCLC was over 100 µM each time.
With `C/C=C(\C)C(=O)O[C@@H]1CC(C)(C)CC2C3=CCC4[C@]56CC[C@](O)(OC5)C(C)(C)C6CC[C@@]4(C)C3(C)CC[C@]21C(=O)O` (stereo partly drawn), the TGI in the assay with HCC-2998 colon, in the assay on HCT-116 colon, in the assay with SW-620 colon, with SF-268 CNS, in the assay with BT-549 breast and in the assay with MDA-MB-435 was over 100 µM each time. For the same molecule, the TGI with HT29 colon, with TK-10 renal and with UACC-257 melanoma was over 100 µM each time.
For the molecule `Cc1c(Cl)cccc1N=NC(=O)NNc1cccc(Cl)c1C`, the TGI was 31.1 µM with HCC-2998 colon; 28.6 µM in the assay on HCT-116 colon; 30.8 µM in the assay on SW-620 colon; 31.8 µM in the assay on SF-268 CNS; 27.7 µM with BT-549 breast; 34.5 µM in the assay with MDA-MB-435. In addition, the TGI in the assay with HT29 colon turned out to be 35.3 µM; in the assay with TK-10 renal it was 29.6 µM; with UACC-257 melanoma, 42.1 µM.
